Experimental data as given in patent publication US8932597B2 (priority 2008, dated 2015).

Key:
2N9 control antibody = assay type: binding
14C2 antibody = assay type: binding
mAb 8i10 = assay type: binding, human
mAb 23K12 = assay type: binding, human
HuM2e antibody 23K12 = assay type: binding, human
HuM2e antibody 8I10 = assay type: binding, human
[1] = system: anti-M2 human monoclonal antibody Z3G1; assay type: binding

Row | Substance | Binding activity to truncated M2 peptides, ELISA absorbance at 450 nm, 2N9 (2N9 control antibody) | Binding activity to truncated M2 peptides, ELISA absorbance at 450 nm, 14C2 (14C2 antibody) | Binding activity to truncated M2 peptides, ELISA absorbance at 450 nm, 8i10 (mAb 8i10) | Binding activity to truncated M2 peptides, ELISA absorbance at 450 nm, 23K12 (mAb 23K12) | further results
1 | IRNEWGCRCNDSSD [CM14] | 0.13 | 0.23 | 0.14 | 0.36 | –
2 | LTEVETPIRNEWGCR [M15] | 0.09 | – | 0.09 | – | –
3 | SLLTEVETPIRNEWGC [NM16] | 0.09 | 3.90 | 0.29 | 0.62 | –
4 | ETPIRNEWGCRCNDSSD [CM17] | 0.11 | – | 0.11 | – | –
5 | SLLTEVETPIRN [NM12] | 0.09 | 0.20 | 0.10 | 0.24 | –
6 | SLLTEVETPIRNEW [NM14] | 0.09 | – | 0.11 | – | –
7 | SLLTEVETPIRNEWG [NM15] | 0.11 | – | 0.12 | – | –
8 | SLLTEVETP [NM9] | 0.19 | – | 0.12 | – | –
9 | LLTEVETPIRNEWGCR [M16] | 0.09 | 3.94 | 0.09 | 0.21 | –
10 | SLLTEVETPIRNEWGCRCNDSSD [M2] | 0.06 | 3.85 | 0.11 | 0.22 | –
11 | SLLTEVETPIRNEWGCR [NM17] | 0.10 | 3.99 | 0.26 | 0.58 | –
12 | TPIRNEWGCRCNDSSD [CM16] | 0.12 | 0.23 | 0.13 | 0.35 | –
13 | SLLTEVETPI [NM10] | 0.10 | 0.17 | 0.10 | 0.24 | –
14 | RNEWGCRCNDSSD [CM13] | 0.13 | – | 0.14 | – | –
15 | PIRNEWGCRCNDSSD [CM15] | 0.11 | – | 0.12 | – | –
16 | VETPIRNEWGCR [M12] | 0.09 | 0.15 | 0.09 | 0.20 | –
17 | SLLTEVET [NM8] | 0.09 | 0.15 | 0.10 | 0.20 | –
18 | NEWGCRCNDSSD [CM12] | 0.14 | 0.27 | 0.14 | 0.39 | –
19 | MSLLTEVETPIRNEWGCRCNDSSD [M2e] | 0.10 | 3.98 | 0.13 | 0.43 | –
20 | SLLTEVE [NM7] | 0.08 | 0.14 | 0.10 | 0.20 | –
21 | SLLTEVETPIR [NM11] | 0.12 | 0.21 | 0.13 | 0.30 | –
22 | CSLLTECGSLLTCV (epitope peptide) [SEQ ID NO: 463] | – | – | – | – | Binding to 23K12 (in words) (HuM2e antibody 23K12): very best specific binder; Binding to 8I10 (in words) (HuM2e antibody 8I10): very best specific binder
23 | SLLTEVETPIRNE [NM13] | 0.10 | – | 0.11 | – | –
24 | 444 (SLLTEVETPIRNEWGCRC; epitope peptide) [compound 444] | – | – | – | – | Signal (peptides that bind to Z3G1) [1]: 2478; Signal (peptides that bind to 23K21 and 8I10) (HuM2e antibody 23K12): 898
25 | 685 (SLLTEVETPIRNVWGCRCNDSSD; epitope peptide) [compound 685] | – | – | – | – | Signal (peptides that show specific binding to Z3G1) [1]: 2281; Signal (peptides that bind to 23K21 and 8I10) (HuM2e antibody 23K12): 728
26 | 390 (CLLTEVGSLLTEV; epitope peptide) [compound 390] | – | – | – | – | Signal (peptides that show specific binding to Z3G1) [1]: 2494; Signal (peptides that bind to 23K21 and 8I10) (HuM2e antibody 23K12): 1349
27 | 576 (SLLTEVETPIFNEWGCRCNDSSD; epitope peptide) [compound 576] | – | – | – | – | Signal (peptides that show specific binding to Z3G1) [1]: 2176; Signal (peptides that bind to 23K21 and 8I10) (HuM2e antibody 23K12): 862
